This is an account of results in patent US10662195B2, “Protein kinase conjugates and inhibitors” (Celgene Avilomics Research, Inc., priority 2009, dated 2020).

In experiment [1] the target is T1, KDR (Homo sapiens, UniProt P35968). In words: KDR Omnia continuous-read kinase assay. The class given is biochemical. Also noted: purchased Invitrogen or BPS Bioscience PV3660 or 40301. The note with it: 30 min pre-incubation; read-out: IC50_APP KDR. How it is done:
(§1) A. KDR and FLT-3 Omnia Assay for Potency Assessment:
(§2) The protocol below describes a continuous-read kinase assay to measure inherent potency of Avila Therapeutics' compounds against active KDR and FLT-3 enzymes. The assay was performed substantially as described by the vendor (Invitrogen, Carlsbad, Calif.; http://www.invitrogen.com/content.cfm?pageid=11338.)
Briefly, 10× stocks of KDR from Invitrogen or BPS Bioscience (PV3660 or 40301) and FLT-3 (PV3182) enzymes, 1.13×ATP (AS001A) and Y9-Sox or Y12-Sox peptide substrates (KCZ1001) were prepared in 1× kinase reaction buffer consisting of 20 mM Tris, pH 7.5, 5 mM MgCl2, 1 mM EGTA, 5 mM β-glycerophosphate, 5% glycerol (10× stock, KB002A) and 0.2 mM DTT (DS001A). 5 μL of enzyme were pre-incubated in a Corning (#3574) 384-well, white, non-binding surface microtiter plate (Corning, N.Y.) for 30 min at 27° C. with a 0.5 μL volume of 50% DMSO and serially diluted compounds prepared in 50% DMSO. Kinase reactions were started with the addition of 45 μL of the ATP/Y9 or Y5-Sox peptide substrate mix and monitored every 30-90 seconds for 60 minutes at λex360/λem485 in a Synergy^4 plate reader from BioTek (Winooski, Vt.). At the conclusion of each assay, progress curves from each well were examined for linear reaction kinetics and fit statistics (R^2, 95% confidence interval, absolute sum of squares). Initial velocity (0 minutes to 20+ minutes) from each reaction was determined from the slope of a plot of relative fluorescence units vs time (minutes) and then plotted against inhibitor concentration to estimate IC50 from Log [Inhibitor] vs Response, Variable Slope model in GraphPad Prism from GraphPad Software (San Diego, Calif.). […]
(§3) The reported IC50_APP and IC50 values are in units of nM.

Experiment [2] deals with T2, FLT3 (Homo sapiens, UniProt P36888).
T2 construct: purchased PV3182
T2 sequence (P36888 27-993): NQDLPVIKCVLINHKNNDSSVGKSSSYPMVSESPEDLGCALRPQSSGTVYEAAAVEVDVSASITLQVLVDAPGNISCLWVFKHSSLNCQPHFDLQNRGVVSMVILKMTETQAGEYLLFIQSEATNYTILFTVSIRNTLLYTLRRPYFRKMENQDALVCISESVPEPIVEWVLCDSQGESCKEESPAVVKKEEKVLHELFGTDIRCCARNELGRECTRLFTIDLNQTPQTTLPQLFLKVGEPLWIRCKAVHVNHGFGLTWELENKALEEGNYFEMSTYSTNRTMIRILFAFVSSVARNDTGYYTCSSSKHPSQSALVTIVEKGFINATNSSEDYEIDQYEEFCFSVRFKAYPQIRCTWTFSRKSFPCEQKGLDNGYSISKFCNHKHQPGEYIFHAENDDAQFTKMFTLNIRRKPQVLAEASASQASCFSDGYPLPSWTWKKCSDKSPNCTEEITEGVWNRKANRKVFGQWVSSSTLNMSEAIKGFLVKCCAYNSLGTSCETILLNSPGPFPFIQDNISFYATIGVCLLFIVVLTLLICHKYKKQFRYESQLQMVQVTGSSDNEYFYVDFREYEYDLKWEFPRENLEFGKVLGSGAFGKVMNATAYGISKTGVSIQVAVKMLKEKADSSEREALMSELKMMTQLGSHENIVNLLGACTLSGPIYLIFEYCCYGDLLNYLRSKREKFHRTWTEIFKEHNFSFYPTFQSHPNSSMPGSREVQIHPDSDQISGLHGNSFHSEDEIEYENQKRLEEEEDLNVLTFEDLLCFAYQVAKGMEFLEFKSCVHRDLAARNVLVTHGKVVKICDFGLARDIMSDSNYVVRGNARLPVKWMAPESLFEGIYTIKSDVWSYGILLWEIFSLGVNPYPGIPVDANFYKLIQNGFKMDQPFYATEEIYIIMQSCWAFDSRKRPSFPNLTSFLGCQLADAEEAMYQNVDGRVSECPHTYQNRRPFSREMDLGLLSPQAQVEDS
In words: FLT-3 Omnia continuous-read kinase assay. In kind it is biochemical. The following applies: 30 min pre-incubation, [ATP]=500 μM; read-out: IC50_APP FLT3. As to the method: as §1, §2
Briefly, 10× stocks of KDR from Invitrogen or BPS Bioscience (PV3660 or 40301) and FLT-3 (PV3182) enzymes, 1.13×ATP (AS001A) and Y9-Sox or Y12-Sox peptide substrates (KCZ1001) were prepared in 1× kinase reaction buffer consisting of 20 mM Tris, pH 7.5, 5 mM MgCl2, 1 mM EGTA, 5 mM β-glycerophosphate, 5% glycerol (10× stock, KB002A) and 0.2 mM DTT (DS001A). 5 μL of enzyme were pre-incubated in a Corning (#3574) 384-well, white, non-binding surface microtiter plate (Corning, N.Y.) for 30 min at 27° C. with a 0.5 μL volume of 50% DMSO and serially diluted compounds prepared in 50% DMSO. Kinase reactions were started with the addition of 45 μL of the ATP/Y9 or Y5-Sox peptide substrate mix and monitored every 30-90 seconds for 60 minutes at λex360/λem485 in a Synergy^4 plate reader from BioTek (Winooski, Vt.). At the conclusion of each assay, progress curves from each well were examined for linear reaction kinetics and fit statistics (R^2, 95% confidence interval, absolute sum of squares). Initial velocity (0 minutes to 20+ minutes) from each reaction was determined from the slope of a plot of relative fluorescence units vs time (minutes) and then plotted against inhibitor concentration to estimate IC50 from Log [Inhibitor] vs Response, Variable Slope model in GraphPad Prism from GraphPad Software (San Diego, Calif.).
[FLT-3]=15 nM, [ATP]=500 μM and [Y5-Sox peptide]=10 μM (ATP KMapp=470 μM)
as §3

Experiment [3] addresses T1, KDR. In words: Mass spectral analysis of tryptic digest of KDR after incubation with compound. The following applies: KDR 40 pmols, compound 395 pmols, 3 hrs, MALDI. The class given is binding. As to the method:
KDR kinase (40 pmols) was incubated with II-2 (395 pmols) for 3 hrs at 10× access prior to tryptic digestion. Iodoacetamide was used as the alkylating agent after compound incubation. For tryptic digests a 5 ul aliquot (6.7 pmols) was diluted with 10 ul of 0.1% TFA prior to micro C18 Zip Tipping directly onto the MALDI target using alpha cyano-4-hydroxy cinnamic acid as the matrix (5 mg/ml in 0.1% TFA:Acetonitrile 50:50).
For tryptic digests the instrument was set in Reflectron mode with a pulsed extraction setting of 1800. Calibration was done using the Laser Biolabs Pep Mix standard (1046.54, 1296.69, 1672.92, 2093.09, 2465.20). For CID/PSD analysis the peptide was selected using cursors to set ion gate timing and fragmentation occurred at a laser power about 20% higher and He was used as the collision gas for CID. Calibration for fragments was done using the P14R fragmentation calibration for the Curved field Reflectron.

T1 sequence (P35968 20-1356): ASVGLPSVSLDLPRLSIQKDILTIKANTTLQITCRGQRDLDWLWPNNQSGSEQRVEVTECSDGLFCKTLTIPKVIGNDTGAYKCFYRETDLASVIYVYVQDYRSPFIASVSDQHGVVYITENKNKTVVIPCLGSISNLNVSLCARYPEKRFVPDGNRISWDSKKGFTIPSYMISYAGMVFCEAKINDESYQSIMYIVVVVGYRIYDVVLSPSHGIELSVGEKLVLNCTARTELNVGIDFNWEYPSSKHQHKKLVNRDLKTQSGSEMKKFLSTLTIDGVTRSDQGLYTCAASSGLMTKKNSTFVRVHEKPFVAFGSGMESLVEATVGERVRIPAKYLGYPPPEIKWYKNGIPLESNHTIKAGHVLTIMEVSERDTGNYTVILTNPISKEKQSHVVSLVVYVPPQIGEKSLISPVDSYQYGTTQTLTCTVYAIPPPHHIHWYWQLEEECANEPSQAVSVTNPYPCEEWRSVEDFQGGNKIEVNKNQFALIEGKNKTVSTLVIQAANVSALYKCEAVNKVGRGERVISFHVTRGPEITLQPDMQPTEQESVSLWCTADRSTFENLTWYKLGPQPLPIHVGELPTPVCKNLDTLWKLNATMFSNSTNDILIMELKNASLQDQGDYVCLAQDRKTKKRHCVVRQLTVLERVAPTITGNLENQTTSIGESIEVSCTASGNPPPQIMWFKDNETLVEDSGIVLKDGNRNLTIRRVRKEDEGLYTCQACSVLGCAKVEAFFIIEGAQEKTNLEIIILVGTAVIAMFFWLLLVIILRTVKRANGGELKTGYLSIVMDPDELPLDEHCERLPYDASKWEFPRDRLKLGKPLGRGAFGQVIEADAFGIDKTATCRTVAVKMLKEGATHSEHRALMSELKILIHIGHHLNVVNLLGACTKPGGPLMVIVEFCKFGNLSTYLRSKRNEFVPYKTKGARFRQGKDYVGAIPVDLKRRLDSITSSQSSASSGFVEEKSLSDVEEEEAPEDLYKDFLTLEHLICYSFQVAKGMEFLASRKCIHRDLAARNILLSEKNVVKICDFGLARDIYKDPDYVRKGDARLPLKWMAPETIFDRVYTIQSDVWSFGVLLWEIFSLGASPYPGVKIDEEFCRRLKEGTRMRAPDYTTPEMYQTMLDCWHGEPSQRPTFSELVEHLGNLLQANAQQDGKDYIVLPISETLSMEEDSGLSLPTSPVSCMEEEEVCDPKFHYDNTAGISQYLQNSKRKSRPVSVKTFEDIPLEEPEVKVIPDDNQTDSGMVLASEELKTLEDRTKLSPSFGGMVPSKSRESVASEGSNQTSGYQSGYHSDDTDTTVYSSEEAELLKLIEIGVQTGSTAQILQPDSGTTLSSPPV

For the compound `C=CC(=O)N1CCC(Sc2nc(Nc3ncc(C#N)s3)cc(N3CCN(C)CC3)n2)CC1` [II-2, 2-(2-(1-Acryloylpiperidin-4-ylthio)-6-(4-methylpiperazin-1-yl)pyrimidin-4-ylamino)thiazole-5-carbonitrile], the results for the IC50 in experiment [1] and in experiment [2] were 0.0514 µM and 0.000508 µM, respectively. Also, the “MH+ of compound-modified tryptic peptide (ICDFGLAR) of KDR” value in experiment [3] came out at 1364.63.
